Results as given in patent US6716819B2, “Use of xylitol to reduce ionic strength and activate endogenous antimicrobials for prevention and treatment of infections” (University of Iowa Research Foundation, priority 2000, dated 2004).

What was measured:
[1] = incorporated in chewing gum; cited from earlier work
[2] = cited from earlier work
[3] = system: bacteria from the nasal surface; experiment: Growth of normal nasal flora from nasal swabs in M9 media; type: cell-based; details: M9 media with 100 mM xylitol, 72 hours at 37° C.
Procedure: FIGS. 5(A-G). Effect of xylitol on growth of different airway pathogens. A, B and C. Growth of P. aeruginosa (A), S. aureus, (B), and coagulase-negative Staphylococcus (C) were measured as O. D. M9 media alone is indicated by open triangle. Xylitol (closed circle), or succinate, mannitol, or sucrose (open circles), were added to M9 media at 100 mM as indicated. D. Nasal swabs were collected and cultured for 3 days in Lauria-Bertani media (open circles), in minimal M9 media (open squares), or in M9 media supplemented with 100 mM xylitol (closed circles). E, F and G. P. aeruginosa (E), S. aureus (F), and coagulase-negative Staphylococcus (G) were cultured in Lauria-Bertani media alone (open triangles), Lauria-Bertani media with 100 mM xylitol (closed circles), and Lauria-Bertani media containing tobramycin or levofloxacin (open circles).
To test the effect of xylitol on growth of normal nasal flora in a carbon-starved media, nasal swabs were obtained from 3 normal volunteers and the swabs were inoculated into M9 media alone, M9 with 100 mM xylitol, or Lauria-Bertani media. The media were incubated at 37° C. for 72 hours and the O.D. were recorded.
It was tested whether xylitol would support bacterial growth. P. aeruginosa were placed in M9 media, which lacks a carbon source. […] In contrast, there was no growth of P. aeruginosa when M9 media was supplemented with xylitol. […]

[4] = system: CF epithelia; experiment: ASL Cl- concentration and volume (isotope method); type: cell-based, human
Procedure: FIGS. 3(A-B). The effect of apical xylitol on non-CF and CF ASL Cl^− concentration and volume. Five μl of isosmotic xylitol or saline solution were applied to the apical surface. Twenty-four hours later, ASL Cl^− concentration (A) and volume (B) were determined. Asterisk indicates a difference between the saline and the xylitol solutions, p<0.05. N=15 to 18 from 3 CF and 3 non-CF specimens.
Airway epithelial cells were isolated from tracheal and bronchial tissue. […] All epithelia were evaluated with scanning electron microscopy for the development of a ciliated apical surface.
The ASL Cl^− concentration was measured as previously described (Zabner, J., J. J. Smith, P. H. Karp, J. H. Widdicombe, and M. J. Welsh. 1998. Loss of CFTR chloride channels alters salt absorption by cystic fibrosis airway epithelia in vitro. Mol. Cell. 2:397-403). […] The ratio of ^36Cl to ^3H2O was determined by liquid scintillation. […] From these measurements, it was determined the ^3H2O activity per μl of water and the cpm of ^36Cl per mole of Cl^− in the basolateral medium. ASL volume was calculated from the ASL ^3H2O collected divided by the ratio of ^3H2O activity per μl of basolateral medium. Chloride content was calculated from the ASL ^36Cl collected divided by the ratio of ^36Cl per mole of Cl^− in the basolateral medium ASL Cl^− concentration was calculated from the Cl^− content divided by the volume of ASL. […]

OC[C@@H](O)[C@H](O)[C@@H](O)CO [xylitol]
effect on dental caries [1]: prevent dental caries
toxicity observed after intravenous delivery ([2]; 5-50% solution in water at 1-4.5 g/Kg intravenously, changes reversible): increases in serum uric acid and elevated liver enzymes
adverse effect in children ([2]; delivered in large amounts): osmotic diarrhea
growth of bacteria from nasal swabs [3]: no growth
estimated ASL volume ([4]; 24 hours after 5 μl apical): increased
ASL Cl- concentration ([4]; 24 hours after 5 μl isosmotic xylitol solution apical): fell to values observed in non-CF epithelia
